Where a name gives a salt, the structure may show the parent alone.
System: IL-2 production
Assay: Inhibition of IL-2 production in PHA-activated Jurkat cells (ELISA)
Assay type: cell-based
Conditions: Homo sapiens, PHA 2.5 μg/mL, 20 hours at 37° C., IL-2 ELISA
Experimental: Jurkat cells were placed in a 96 well plate (0.5 million cells per well in 1% FBS medium) then a test compound of this invention was added at different concentrations. After 10 minutes, the cells were activated with PHA (final concentration 2.5 μg/mL) and incubated for 20 hours at 37° C. under CO2. The final volume was 200 μL. Following incubation, the cells were centrifuged and the supernatants collected and stored at −70° C. prior to assaying for IL-2 production. A commercial ELISA kit (IL-2 Eli-pair, Diaclone Research, Besancon, France) was used to detect production of IL-2, from which dose response curves were obtained. The IC50 value was calculated as the concentration at which 50% of maximum IL-2 production after stimulation was inhibited versus a non-stimulation control.

Going from `CCOC(=O)N1CCC(C)=C(c2ccc(NC(=O)c3c(F)cccc3F)nc2)C1` [Compound 1, ethyl 3-(6-(2,6-difluorobenzamido)pyridin-3-yl)-4-methyl-5,6-dihydropyridine-1(2H)-carboxylate] to `CC1=C(c2ccc(NC(=O)c3c(F)cccc3F)nc2)CN(C(=O)c2ccccn2)CC1` [Compound 4, 2,6-difluoro-N-(5-(4-methyl-1-picolinoyl-1,2,5,6-tetrahydropyridin-3-yl)pyridin-2-yl)benzamide hydrochloride], the IC50 rises from 30 nM to 934 nM (31-fold).

`C=CCOC(=O)N1CCC(c2ccc(NC(=O)c3c(F)cccc3F)cc2)=C(COC(C)=O)C1` [Compound 3, allyl 3-(acetoxymethyl)-4-(4-(2,6-difluorobenzamido)phenyl)-5,6-dihydropyridine-1(2H)-carboxylate] and `CCOC(=O)N1CCC(c2ccc(NC(=O)c3c(F)cccc3F)cc2)=C(COC(C)=O)C1` [Compound 5, ethyl 3-(acetoxymethyl)-4-(4-(2,6-difluorobenzamido)phenyl)-5,6-dihydropyridine-1(2H)-carboxylate] cannot be ordered by IC50: > 1000 nM for the first, > 1000 nM for the second.

First: CCOC(=O)N1CCC(Cl)=C(c2ccc(NC(=O)c3c(F)cccc3F)cc2)C1 [Compound 6, ethyl 4-chloro-3-(4-(2,6-difluorobenzamido)phenyl)-5,6-dihydropyridine-1(2H)-carboxylate]
Second: CC1=C(c2cnc(NC(=O)c3c(F)cccc3F)cn2)CN(c2ncccn2)CC1 [Compound 2, 2,6-difluoro-N-(5-(4-methyl-1-(pyrimidin-2-yl)-1,2,5,6-tetrahydropyridin-3-yl)pyrazin-2-yl)benzamide hydrochloride]
The IC50 of the first is 1.7-fold higher: 66 nM for the first, 38 nM for the second.

— patent publication US8349841B2, “Vinyl-aryl derivatives for inflammation and immune-related uses” (Synta Pharmaceuticals Corp., priority 2007, dated 2013)
